In the supplement of paper PMC10307832:

Experiments:
Assay in all cases: relative viability (nuclei count vs DMSO), 5 days (fraction); higher = more cells survive
Crizotinib + Luminespib = compound: C[C@@H](Oc1cc(-c2cnn(C3CCNCC3)c2)cnc1N)c1c(Cl)ccc(F)c1Cl [Crizotinib] + CCNC(=O)c1noc(-c2cc(C(C)C)c(O)cc2O)c1-c1ccc(CN2CCOCC2)cc1 [Luminespib] (partner 0.01 µM)
In short: (§1)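 Values are medians from duplicate plates. Each reflects relative viability, defined as the nuclei count of treated wells over that of vehicle wells. Lung cancer cell lines in 1536-well plates were pin-tool dosed one day after seeding with one drug alone or with a fixed anchor-drug dose plus five library-drug doses (not always all listed) in √10 steps, then fixed, stained and imaged at 4× after 5 days.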

Carfilzomib + Foretinib = compound: CC(C)C[C@H](NC(=O)[C@H](CCc1ccccc1)NC(=O)CN1CCOCC1)C(=O)N[C@@H](Cc1ccccc1)C(=O)N[C@@H](CC(C)C)C(=O)[C@@]1(C)CO1 [Carfilzomib] + COc1cc2c(Oc3ccc(NC(=O)C4(C(=O)Nc5ccc(F)cc5)CC4)cc3F)ccnc2cc1OCCCN1CCOCC1 [Foretinib] (partner 0.25 µM)
In short: as §1

Crizotinib + Trametinib = compound: C[C@@H](Oc1cc(-c2cnn(C3CCNCC3)c2)cnc1N)c1c(Cl)ccc(F)c1Cl [Crizotinib] + CC(=O)Nc1cccc(-n2c(=O)n(C3CC3)c(=O)c3c(Nc4ccc(I)cc4F)n(C)c(=O)c(C)c32)c1 [Trametinib] (partner 0.02 µM)
In short: as §1

Crizotinib + AZD7762 = compound: C[C@@H](Oc1cc(-c2cnn(C3CCNCC3)c2)cnc1N)c1c(Cl)ccc(F)c1Cl [Crizotinib] + NC(=O)Nc1cc(-c2cccc(F)c2)sc1C(=O)N[C@H]1CCCNC1 [AZD7762] (partner 0.2 µM)
In short: as §1

| Cell Line | relative viability (Crizotinib + Luminespib; first compound 0.01 µM) | relative viability (Crizotinib + Luminespib; first compound 0.03162 µM) | relative viability (Crizotinib + Luminespib; first compound 0.1 µM) | relative viability (Crizotinib + Luminespib; first compound 1 µM) | relative viability (Carfilzomib + Foretinib; first compound 0.001 µM) | relative viability (Carfilzomib + Foretinib; first compound 0.003162 µM) | relative viability (Carfilzomib + Foretinib; first compound 0.01 µM) | relative viability (Carfilzomib + Foretinib; first compound 0.03162 µM) | relative viability (Carfilzomib + Foretinib; first compound 0.1 µM) | relative viability (Crizotinib + Trametinib; first compound 0.01 µM) | relative viability (Crizotinib + Trametinib; first compound 0.03162 µM) | relative viability (Crizotinib + Trametinib; first compound 0.1 µM) | relative viability (Crizotinib + Trametinib; first compound 0.3162 µM) | relative viability (Crizotinib + Trametinib; first compound 1 µM) | relative viability (Crizotinib + AZD7762; first compound 0.01 µM) | relative viability (Crizotinib + AZD7762; first compound 0.03162 µM) | relative viability (Crizotinib + AZD7762; first compound 0.1 µM) | relative viability (Crizotinib + AZD7762; first compound 0.3162 µM) | relative viability (Crizotinib + AZD7762; first compound 1 µM) | relative viability (Crizotinib + Luminespib; first compound 0.3162 µM) |
| --- | --- | --- | --- | --- | --- | --- | --- | --- | --- | --- | --- | --- | --- | --- | --- | --- | --- | --- | --- | --- |
| LK-2 | 0.173 | 0.188 | 0.188 | 0.201 | 1.24 | 1.25 | 1.42 | 0.144 | 0.16 | 0.858 | 0.749 | 0.674 | 0.805 | 0.728 | 0.533 | 0.293 | 0.341 | 0.204 | 0.398 | – |
| LOU-NH91 | 0.351 | 0.311 | 0.346 | 0.345 | 0.934 | 1.04 | 0.875 | 0.303 | 0.224 | 0.773 | 0.79 | 0.833 | 0.763 | 0.794 | 0.778 | 0.82 | 0.796 | 0.719 | 0.716 | 0.34 |
| LU99A | 0.234 | 0.22 | 0.254 | 0.246 | 0.943 | 0.772 | 0.847 | 0.565 | 0.246 | 0.587 | 0.527 | 0.49 | 0.511 | 0.522 | 0.276 | 0.362 | 0.34 | 0.32 | 0.407 | 0.23 |
| LXF-289 | 0.664 | 0.726 | 0.662 | 0.609 | 1 | 0.945 | 0.948 | 0.464 | 0.0789 | 0.666 | 0.668 | 0.726 | 0.57 | 0.693 | 1.05 | 1.11 | 1.16 | 1 | 1.19 | 0.445 |
| NCI-H23 | 0.242 | 0.221 | 0.206 | 0.236 | 0.873 | 1.11 | 1.09 | 0.188 | 0.134 | 0.341 | 0.367 | 0.329 | – | 0.393 | 0.281 | 0.323 | 0.297 | – | 0.261 | 0.212 |
| NCI-H322M | 0.721 | 0.994 | 0.725 | 0.964 | 0.981 | 1.01 | 0.999 | 0.943 | 0.359 | – | 0.507 | 0.482 | 0.493 | 0.554 | – | 0.575 | 0.609 | 0.547 | 0.584 | 1 |
| NCI-H358 | 0.464 | 0.431 | 0.488 | 0.334 | 0.688 | 1.01 | 0.63 | 0.0762 | 0.0649 | 0.108 | 0.151 | 0.131 | 0.112 | 0.135 | – | 0.533 | 0.469 | 0.458 | 0.492 | 0.416 |
| NCI-H441 | 0.273 | 0.315 | 0.399 | 0.391 | 0.878 | 0.977 | 0.61 | 0.199 | 0.349 | 0.405 | 0.475 | 0.59 | 0.382 | 0.446 | 0.998 | 1.03 | 1.12 | 1.09 | 1.21 | – |
| NCI-H460 | 0.0237 | 0.0313 | 0.0367 | 0.0386 | 0.97 | 1.05 | 0.988 | 0.75 | 0.0297 | 0.212 | 0.154 | 0.211 | 0.165 | 0.149 | 0.592 | 0.64 | 0.665 | – | 0.607 | 0.0315 |
| NCI-H596 | 0.86 | 1.18 | 0.942 | 1.01 | 0.813 | 0.84 | 0.812 | 0.195 | 0.148 | 0.834 | 0.845 | 0.82 | 0.888 | 0.819 | 1.05 | 1.01 | 1.03 | – | 1.16 | 1.18 |
| NCI-H647 | 0.2 | 0.14 | 0.146 | 0.153 | 1.19 | 1.33 | 1.26 | 0.0352 | 0.0362 | 0.43 | 0.575 | 0.435 | 0.436 | 0.559 | 0.444 | 0.626 | 0.403 | 0.394 | 0.595 | 0.152 |
| NCI-H650 | 0.726 | 0.75 | – | 0.942 | – | 1.27 | 1.03 | 0.71 | 0.174 | 0.955 | 1.04 | – | – | – | 1.03 | 0.979 | 0.815 | – | 0.945 | 0.798 |
| NCI-H727 | – | 0.346 | 0.296 | 0.509 | 0.758 | 0.891 | 0.996 | 0.617 | 0.397 | 0.356 | 0.427 | 0.344 | 0.434 | 0.381 | 0.566 | 0.568 | 0.567 | 0.433 | 0.661 | – |
| NCI-H838 | 0.289 | 0.275 | 0.312 | 0.254 | 1.06 | 1.12 | 1.15 | 0.974 | 0.131 | 0.474 | 0.513 | 0.576 | 0.515 | 0.498 | 0.975 | 0.919 | 0.969 | 0.9 | 0.974 | 0.326 |
| NCI-H1355 | 0.709 | 0.749 | 0.644 | 0.783 | 0.995 | 1.07 | 1.03 | 0.714 | 0.198 | 0.416 | 0.409 | 0.45 | 0.396 | 0.404 | 0.678 | 0.707 | 0.867 | 0.675 | 0.769 | 0.641 |
| NCI-H1395 | 0.632 | 0.621 | 0.692 | 0.627 | 0.981 | 1.07 | 0.954 | 0.527 | 0.329 | 0.951 | 1.05 | 1.04 | 0.971 | 1.1 | 0.381 | 0.372 | 0.429 | 0.43 | 0.397 | 0.759 |
| NCI-H1437 | 1.06 | 1.15 | 1.14 | 1.22 | 1.29 | 1.4 | 1.29 | 1.19 | 0.284 | 0.542 | 0.577 | 0.544 | 0.457 | 0.608 | 1.03 | 1.13 | 1.09 | 1.13 | 1.09 | 1.17 |
